In one test the test system is Staph. The experiment in a line: Range of MIC for Staph. strains, including MRSA. The note with it: Staphylococcus aureus.
A further test concerns E. coli #311. As to the kind of experiment: In vivo activity (oral, iv; ED50) against E. coli in mice. The note with it: Escherichia coli. From the text:
. […] Smith and E. Coli #311 in mammals.
Results of the tests (MIC, oral and IV) are list in Table 7.

In test [1] the test system is Staph. aureus Smith. As to the kind of experiment: In vivo activity (oral, iv; ED50) against Staph. aureus Smith in mice.
Description: Representative examples of compounds of Formula I were tested for the oral efficacy using S. aureus Smith in mice.
For test [2], the system named is E. coli. The experiment in a line: Range of MIC for E. coli strains. To be noted: Escherichia coli.
In test [3] the test system is Staph. aureus Smith. As to the kind of experiment: In vitro activity (MIC) against Staph. aureus Smith. In kind it is cell-based. The note with it: Staphylococcus aureus.
In test [4] the test system is E. coli. As to the kind of experiment: In vitro activity (MIC) against E. coli (Table 7). In kind it is cell-based. The note with it: Escherichia coli.
[5] abbreviates: MRSA, read-out: Range of MIC, Staph (Mouse Serum).
The mark [6] stands for this setting: MRSA, read-out: Range of MIC, Staph (Water).
[7] abbreviates: MRSA, read-out: Range of MIC, Staph. (mouse serum).
Setting [8] is: MRSA, read-out: Range of MIC, Staph. (water).
[9] abbreviates: read-out: Minimum inhibitory concentration (MIC), Staph (Human Serum).
Where [10] appears, read: read-out: Minimum inhibitory concentration (MIC), Staph (Water).
Setting [11] is: single intravenous dose (SIV), read-out: ED50 E. coli #311 SIV.
Setting [12] is: single oral dose (SOD), read-out: ED50 E. coli #311 SOD.
Setting [13] is: Staphylococcus aureus, in Mus musculus, iv, read-out: ED50 SIV (Staph aureus Smith).
Where [14] appears, read: Staphylococcus aureus, in Mus musculus, po, read-out: ED50 SOD (Staph aureus Smith).
Where [15] appears, read: Staphylococcus aureus, in Mus musculus, po, read-out: ED50 Staph Smith SOD.
[16] abbreviates: iv, read-out: ED50 Staph Smith SIV.
The mark [17] stands for this setting: 20 h, read-out: Range of MIC, E. coli (Mouse Serum).
Setting [18] is: read-out: Minimum inhibitory concentration (MIC), E. coli (Human Serum).
Setting [19] is: read-out: Range of MIC, E. coli (mouse serum).
Where [20] appears, read: read-out: Range of MIC, E. coli (Water).
Setting [21] is: MRSA, read-out: Minimum inhibitory concentration (MIC), Staph. (mouse serum).
[22] abbreviates: MRSA, read-out: Minimum inhibitory concentration (MIC), Staph. (water).
[23] abbreviates: read-out: Minimum inhibitory concentration (MIC), E. coli (mouse serum).
Where [24] appears, read: read-out: Minimum inhibitory concentration (MIC), E. coli (water).

For six compounds, MIC and ED50 results are on record in patent US20070049564A1 (Wyeth, priority 2005, published 2007).

Values after ≈ are worked out from the molar mass of the structure shown. Where two headings read alike, the source gives them in different places.

Usually ED50 stands for the midpoint of the dose-response relation. For `CCCCCCC(=O)OCOC(=O)N(CCC)CC(=O)Nc1cc(N(C)C)c2c(c1O)C(=O)C1=C(O)[C@]3(O)C(=O)C(C(N)=O)=C(O)[C@@H](N(C)C)[C@@H]3C[C@@H]1C2` [Example 19, ({[(2-{[(5aR,6aS,7S,10aS)-9-(aminocarbonyl)-4,7-bis(dimethylamino)-1,8,10a,11-tetrahydroxy-10,12-dioxo-5,5a,6,6a,7,10,10a,12-octahydrotetracen-2-yl]amino}-2-oxoethyl)(propyl)amino]carbonyl}oxy)methyl heptanoate], the MIC in the test with Staph. (setting [5]) was 0.5 to 4 µg/mL (≈ 0.66 to 5.28 µM); with Staph. (setting [6]) it was 1 to 8 µg/mL (≈ 1.32 to 10.6 µM); in the test on Staph. (setting [7]) it was 0.5 to 4 µg/mL (≈ 0.66 to 5.28 µM); in the test with Staph. (setting [8]) it was 1 to 8 µg/mL (≈ 1.32 to 10.6 µM); in the test on Staph. (setting [9]) it was 0.12 to 1 µg/mL (≈ 0.158 to 1.32 µM); in the test on Staph. (setting [10]) it was 0.25 to 4 µg/mL (≈ 0.33 to 5.28 µM). Besides, the MIC with E. coli [2] (setting [17]) was 0.5 to 2 µg/mL (≈ 0.66 to 2.64 µM); in the test with E. coli [2] (setting [18]), 8 to 32 µg/mL (≈ 10.6 to 42.2 µM); in the test with E. coli [2] (setting [19]), 0.5 to 2 µg/mL (≈ 0.66 to 2.64 µM); against Staph. aureus Smith [3] (Table 8) it was 1 µg/mL (≈ 1.32 µM). Besides, the ED50 in the test on E. coli #311 (setting [11]) is more than 2 mg/kg; in the test on E. coli #311 (setting [12]) it was more than 32 mg/kg; in the test on Staph. aureus Smith [1] (setting [13]), 0.31 mg/kg; in the test with Staph. aureus Smith [1] (setting [14]), 8.05 mg/kg; in the test with Staph. aureus Smith [1] (setting [15]) it was 8.05 mg/kg; in the test on Staph. aureus Smith [1] (setting [16]), 0.31 mg/kg.
Turning to `CCCN(CC(=O)Nc1cc(N(C)C)c2c(c1O)C(=O)C1=C(O)[C@]3(O)C(=O)C(C(N)=O)=C(O)[C@@H](N(C)C)[C@@H]3C[C@@H]1C2)C(=O)OCOC(=O)CC(C)(C)C` [Example 35, ({[(2-{[(5aR,6aS,7S,10aS)-9-(aminocarbonyl)-4,7-bis(dimethylamino)-1,8,10a,11-tetrahydroxy-10,12-dioxo-5,5a,6,6a,7,10,10a,12-octahydrotetracen-2-yl]amino}-2-oxoethyl)(propyl)amino]carbonyl}oxy)methyl 3,3-dimethylbutanoate], the MIC with Staph. (setting [5]) lay within 2 to 4 µg/mL (≈ 2.69 to 5.38 µM); in the test on Staph. (setting [6]), 2 to 4 µg/mL (≈ 2.69 to 5.38 µM); in the test with Staph. (setting [7]), 2 to 4 µg/mL (≈ 2.69 to 5.38 µM); with Staph. (setting [8]), 2 to 4 µg/mL (≈ 2.69 to 5.38 µM); in the test with E. coli [2] (setting [17]), 4 to 8 µg/mL (≈ 5.38 to 10.8 µM); in the test on E. coli [2] (setting [20]), 8 to 64 µg/mL (≈ 10.8 to 86 µM). For the same compound, the MIC in the test with E. coli [2] (setting [19]) is 4 to 8 µg/mL (≈ 5.38 to 10.8 µM); with E. coli [2] (read-out: Range of MIC, E. coli (water)), 8 to 64 µg/mL (≈ 10.8 to 86 µM); against Staph. aureus Smith [3] (Table 8), 4 µg/mL (≈ 5.38 µM). Moreover, the ED50 is 0.43 mg/kg in the test on Staph. aureus Smith [1] (setting [13]), 3.5 mg/kg in the test on Staph. aureus Smith [1] (setting [14]), 3.5 mg/kg with Staph. aureus Smith [1] (setting [15]) and 0.43 mg/kg with Staph. aureus Smith [1] (setting [16]).
For `CCCCN(CC(=O)Nc1cc(N(C)C)c2c(c1O)C(=O)C1=C(O)[C@]3(O)C(=O)C(C(N)=O)=C(O)[C@@H](N(C)C)[C@@H]3C[C@@H]1C2)C(=O)OCOC(=O)CC(C)(C)C` [Example 36, ({[(2-{[(5aR,6aS,7S,10aS)-9-(aminocarbonyl)-4,7-bis(dimethylamino)-1,8,10a,11-tetrahydroxy-10,12-dioxo-5,5a,6,6a,7,10,10a,12-octahydrotetracen-2-yl]amino}-2-oxoethyl)(butyl)amino]carbonyl}oxy)methyl 3,3-dimethylbutanoate], the MIC lay within 2 to 4 µg/mL (≈ 2.64 to 5.28 µM) in the test on Staph. (setting [21]); 4 to 16 µg/mL (≈ 5.28 to 21.1 µM) in the test with Staph. (setting [22]); 2 to 4 µg/mL (≈ 2.64 to 5.28 µM) in the test with Staph. (setting [5]); 4 to 16 µg/mL (≈ 5.28 to 21.1 µM) in the test with Staph. (setting [6]); 2 to 8 µg/mL (≈ 2.64 to 10.6 µM) in the test on E. coli [2] (setting [17]); 2 to 8 µg/mL (≈ 2.64 to 10.6 µM) in the test with E. coli [2] (setting [23]). Also, the MIC was 8 to 32 µg/mL (≈ 10.6 to 42.2 µM) with E. coli [2] (setting [24]), 8 to 32 µg/mL (≈ 10.6 to 42.2 µM) with E. coli [2] (setting [20]) and 8 µg/mL (≈ 10.6 µM) in the test with Staph. aureus Smith [3] (Table 8). In addition, the ED50 with Staph. aureus Smith [1] (setting [13]) turned out to be 0.84 mg/kg; in the test on Staph. aureus Smith [1] (setting [14]), 5.15 mg/kg; in the test with Staph. aureus Smith [1] (setting [15]) it was 5.15 mg/kg; in the test on Staph. aureus Smith [1] (setting [16]), 0.84 mg/kg.
With `CCCCN(CC(=O)Nc1cc(N(C)C)c2c(c1O)C(=O)C1=C(O)[C@]3(O)C(=O)C(C(N)=O)=C(O)[C@@H](N(C)C)[C@@H]3C[C@@H]1C2)C(=O)OCOC(=O)CC1CCCC1` [Example 38, ({[(2-{[(5aR,6aS,7S,10aS)-9-(aminocarbonyl)-4,7-bis(dimethylamino)-1,8,10a,11-tetrahydroxy-10,12-dioxo-5,5a,6,6a,7,10,10a,12-octahydrotetracen-2-yl]amino}-2-oxoethyl)(butyl)amino]carbonyl}oxy)methyl cyclopentylacetate], the MIC in the test on Staph. (setting [21]) lay in the range of 0.5 to 2 µg/mL (≈ 0.649 to 2.6 µM); in the test with Staph. (setting [22]), 1 to 8 µg/mL (≈ 1.3 to 10.4 µM); in the test on Staph. (setting [5]), 0.5 to 2 µg/mL (≈ 0.649 to 2.6 µM); with Staph. (setting [6]), 1 to 8 µg/mL (≈ 1.3 to 10.4 µM); in the test with E. coli [2] (setting [17]), 0.5 to 4 µg/mL (≈ 0.649 to 5.2 µM); in the test on E. coli [2] (setting [23]), 0.5 to 4 µg/mL (≈ 0.649 to 5.2 µM). In the test on Staph. aureus Smith [3] (Table 8), the MIC came to 2 µg/mL (≈ 2.6 µM). Further, the 50% effective dose (ED50) in the test with Staph. aureus Smith [1] (setting [13]) stood at 0.6 mg/kg; with Staph. aureus Smith [1] (setting [14]) it was 5.3 mg/kg; with Staph. aureus Smith [1] (setting [15]) it was 5.3 mg/kg; in the test with Staph. aureus Smith [1] (setting [16]), 0.6 mg/kg.
Take `CCCN(CC(=O)Nc1cc(N(C)C)c2c(c1O)C(=O)C1=C(O)[C@]3(O)C(=O)C(C(N)=O)=C(O)[C@@H](N(C)C)[C@@H]3C[C@@H]1C2)C(=O)OCOC(=O)CC1CCCC1` [Example 40, ({[(2-{[(5aR,6aS,7S,10aS)-9-(aminocarbonyl)-4,7-bis(dimethylamino)-1,8,10a,11-tetrahydroxy-10,12-dioxo-5,5a,6,6a,7,10,10a,12-octahydrotetracen-2-yl]amino}-2-oxoethyl)(propyl)amino]carbonyl}oxy)methyl cyclopentylacetate]: the MIC fell in the range of 0.25 to 2 µg/mL (≈ 0.331 to 2.65 µM) in the test on Staph. (setting [5]); 0.25 to 2 µg/mL (≈ 0.331 to 2.65 µM) with Staph. (setting [6]); 0.25 to 2 µg/mL (≈ 0.331 to 2.65 µM) with Staph. (setting [7]); 0.25 to 2 µg/mL (≈ 0.331 to 2.65 µM) with Staph. (setting [8]); 1 to 2 µg/mL (≈ 1.32 to 2.65 µM) in the test with E. coli [2] (setting [17]); 1 to 2 µg/mL (≈ 1.32 to 2.65 µM) in the test with E. coli [2] (setting [19]). Further, the MIC in the test with Staph. aureus Smith [3] (Table 8) amounted to 0.5 µg/mL (≈ 0.662 µM). In addition, the ED50 in the test on Staph. aureus Smith [1] (setting [13]) was determined as 0.39 mg/kg; in the test on Staph. aureus Smith [1] (setting [14]), 4.65 mg/kg; with Staph. aureus Smith [1] (setting [15]) it was 4.65 mg/kg; in the test with Staph. aureus Smith [1] (setting [16]), 0.39 mg/kg.
With `CN(C)c1cc(NC(=O)CN(C(=O)OCOC(=O)CC2CCCC2)C(C)(C)C)c(O)c2c1C[C@H]1C[C@H]3[C@H](N(C)C)C(O)=C(C(N)=O)C(=O)[C@@]3(O)C(O)=C1C2=O` [Example 54, ({[(2-{[(5aR,6aS,7S,10aS)-9-(aminocarbonyl)-4,7-bis(dimethylamino)-1,8,10a,11-tetrahydroxy-10,12-dioxo-5,5a,6,6a,7,10,10a,12-octahydrotetracen-2-yl]amino}-2-oxoethyl)(tert-butyl)amino]carbonyl}oxy)methyl cyclopentylacetate], the MIC lay within 0.5 to 2 µg/mL (≈ 0.649 to 2.6 µM) with Staph. (setting [5]); 1 to 4 µg/mL (≈ 1.3 to 5.2 µM) in the test on Staph. (setting [6]); 0.5 to 2 µg/mL (≈ 0.649 to 2.6 µM) in the test with Staph. (setting [9]); 1 to 4 µg/mL (≈ 1.3 to 5.2 µM) with Staph. (setting [10]); 0.5 to 1 µg/mL (≈ 0.649 to 1.3 µM) in the test with E. coli [2] (setting [17]); 16 to 32 µg/mL (≈ 20.8 to 41.6 µM) with E. coli [2] (setting [18]). For the same compound, the MIC is more than 64 µg/mL in the test with E. coli [2] (setting [24]), more than 64 µg/mL with E. coli [2] (setting [20]), more than 64 µg/mL with E. coli [4] and 0.5 µg/mL (≈ 0.649 µM) in the test on Staph. aureus Smith [3] (Table 6). The ED50 with E. coli #311 (setting [11]) is 3.72 mg/kg; in the test with E. coli #311 (single intravenous dose, mice, Table 7, read-out: ED50 SIV (E. coli)) it was 2.16 mg/kg; in the test on E. coli #311 (setting [12]) it was more than 32 mg/kg; in the test with E. coli #311 (single oral dose, mice, Table 7, read-out: ED50 SOD (E. coli)), 29.2 mg/kg; with Staph. aureus Smith [1] (setting [13]), 0.83 mg/kg; in the test on Staph. aureus Smith [1] (setting [14]) it was 8.4 mg/kg. In addition, the ED50 was more than 16 mg/kg in the test on Staph. aureus Smith [1] (setting [15]) and 1.17 mg/kg in the test on Staph. aureus Smith [1] (setting [16]).
